In brackets after ≈: the same amount, converted by molar mass.
Experiments:
[1] = test system: A.n; test: Minimum Inhibitory Concentration Test, alternate (Table 4), A.n; assay type: cell-based, Aspergillus niger; settings: Aspergillus niger, TSB, 72 hours
Procedure, shortened: (§1)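 Compound in acetone was diluted into TSB and serially diluted 1:1 from 250 ppm down to 0.8 ppm, in duplicate. Plates were inoculated with diluted 24 h culture and incubated 3 days at 30° C; MIC recorded as lowest concentration with no growth.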

[2] = test system: A.p; test: Minimum Inhibitory Concentration Test, alternate (Table 4), A.p; assay type: cell-based; settings: Aureobasidium pullulans, TSB, 72 hours
Procedure: (§2) A 125 μl aliquot of 10,000 ppm test compound in acetone was added to 4.88 ml of TSB to provide a 250 ppm solution. From this solution, 100 μL was transferred to the first row of two microtiter plate columns. Both replicates and five additional compounds were all serially diluted 1:1 to a final concentration of 0.8 ppm in TSB.
(§3) Inoculation was accomplished by diluting a 24 hr Ps fl culture, four mls per 36 mls of phosphate buffer solution. A Dynatech autoinoculator was used to transfer 1.5 μl of this cell suspension to the microtiter plates. The plates were incubated at 30° C. for 3 days before the lowest concentration at which no growth occurs was recorded in the database. The SOK data and MIC test data on Ps.fl, Ps.ae, E.c, and S.a. bacteria and Candida albicans (C.alb), A.n and A.p fungi are listed in Table 4.

[3] = test system: Candida albicans (C.alb); test: Minimum Inhibitory Concentration Test, alternate (Table 4), C.alb; assay type: cell-based; settings: Candida albicans, TSB, 72 hours
Procedure: as §2, §3

[4] = test system: E.c; test: Minimum Inhibitory Concentration Test, alternate (Table 4), E.c; assay type: cell-based, Escherichia coli; settings: Escherichia coli, TSB, 72 hours
Procedure: as §2, §3

[5] = test system: Ps.ae; test: Minimum Inhibitory Concentration Test, alternate (Table 4), Ps.ae; assay type: cell-based, Pseudomonas aerugenosa; settings: Pseudomonas, TSB, 72 hours
[6] = test system: Pseudomonas fluorescens; test: Minimum Inhibitory Concentration Test, alternate (Table 4), Ps.fl; assay type: cell-based; settings: Pseudomonas fluorescens, TSB, 72 hours, 30° C
Procedure, shortened: as §1

[7] = test system: S.a; test: Minimum Inhibitory Concentration Test, alternate (Table 4), S.a; assay type: cell-based, Staphylococcus aureus; settings: Staphylococcus aureus, TSB, 72 hours
Procedure: as §2, §3

[8] = test system: Pseudoperonospora cubensis; test: whole plant or invertebrate; assay type: in vivo; settings: Pseudoperonospora cubensis, in Cucumis sativus, 168 h; read-out: % control CDM
[9] = test system: Pellicularia filamentosa (f. sp. sasiki); test: whole plant or invertebrate; assay type: in vivo; settings: 120 h; read-out: % control RSB
[10] = test system: Phytophthora infestans; test: whole plant or invertebrate; assay type: in vivo; settings: Phytophthora infestans, in Solanum lycopersicum, 96 h, read-out: % control TLB
[11] = test system: Erysiphe graminis (f. sp. tritici); test: whole plant or invertebrate; assay type: in vivo; settings: Blumeria graminis; read-out: % control WPM
[12] = test system: Puccinia graminis (f. sp. tritici Race 15B-2); test: whole plant or invertebrate; assay type: in vivo; settings: 336 h, read-out: % control WSR
[13] = test system: Piricularia oryzae; test: whole plant or invertebrate; assay type: in vivo; settings: Pyricularia oryzae, read-out: % control RB
[14] = test system: Puccinia recondita (f. sp. tritici Races PKB and PLD); test: whole plant or invertebrate; assay type: in vivo; settings: Puccinia recondita, 240 h; read-out: % control WLR

Structure (SMILES) | MIC [1] | MIC [2] | MIC [3] | MIC [4] | MIC [5] | MIC [6] | MIC [7] | pest or weed control at 300 ppm [9] | pest or weed control at 300 ppm [12] | pest or weed control at 100 ppm [10] | pest or weed control at 100 ppm [11] | pest or weed control at 200 ppm [8] | pest or weed control at 200 ppm [13] | pest or weed control at 200 ppm [10] | pest or weed control at 100 ppm [13] | pest or weed control at 100 ppm [9] | pest or weed control at 100 ppm [12] | pest or weed control at 100 ppm [14] | other results
CCCCCCNC(=O)/C(Cl)=C(/Cl)SC(C(C)=O)C(C)=O [Example 7, N-n-hexyl-2,3-dichloro-cis-3-[3-(2,4-pentanedionyl)thio]acrylamide] | 8 to 63 µg/mL (≈ 22.6 to 178 µM) | 8 µg/mL (≈ 22.6 µM) | 31 µg/mL (≈ 87.5 µM) | 125 µg/mL (≈ 353 µM) | 500 µg/mL (≈ 1410 µM) | 250 to 500 µg/mL (≈ 706 to 1410 µM) | 125 µg/mL (≈ 353 µM) | 0% | 60% |  |  |  |  |  |  |  |  |  | pest or weed control at 300 ppm [8]: 95%; pest or weed control at 300 ppm [10]: 20%; pest or weed control at 300 ppm [11]: 0%
CCCCCNC(=O)/C=C\SC(C(C)=O)C(C)=O [Example 3, N-n-pentyl-cis-3-[3-(2,4-pentanedionyl)thio]acrylamide] | 31 to 63 µg/mL (≈ 114 to 232 µM) | 8 µg/mL (≈ 29.5 µM) | 31 µg/mL (≈ 114 µM) | 125 to 250 µg/mL (≈ 461 to 921 µM) | > 500 µg/mL | > 500 µg/mL | 125 µg/mL (≈ 461 µM) | 0% | 60% | 40% | 0% |  |  |  |  |  |  |  | pest or weed control at 300 ppm [8]: 98%; pest or weed control at 300 ppm [13]: 0%
CCCCCCCCNC(=O)/C=C\SC(C(C)=O)C(=O)CC (stereo not drawn) [Example 10, N-n-octyl-cis-3-[3-(2,4-hexanedionyl)thio]acrylamide] | > 500 µg/mL |  |  |  |  | > 500 µg/mL |  |  |  |  |  | 100% | 95% | 98% |  |  |  |  | pest or weed control at 200 ppm [9]: 0%; pest or weed control at 200 ppm [11]: 30%; pest or weed control at 200 ppm [12]: 80%
CCCCCCCCNC(=O)/C=C\SC(C(=O)c1ccccc1)C(=O)c1ccccc1 [Example 67, N-n-octyl-cis-3-[2-(1,3-diphenyl-1,3-propanedionyl)thio]acrylamide] |  |  |  |  |  |  |  |  |  | 0% | 0% |  |  |  | 90% | 0% | 0% | 0% | 
CCCCCCCCNC(=O)/C=C\SC(C(=O)CC)C(=O)CC [Example 8, N-n-octyl-cis-3-[4-(3,5-heptanedionyl)thio]acrylamide] | > 500 µg/mL |  |  |  |  | > 500 µg/mL |  |  |  |  |  | 95% | 95% | 92% |  |  |  |  | pest or weed control at 200 ppm [9]: 0%; pest or weed control at 200 ppm [11]: 0%; pest or weed control at 200 ppm [12]: 60%
CCCCCCCCNC(=O)/C=C\SC(C(=O)Nc1ccccc1OC)C(=O)OCC (stereo not drawn) [Example 53, N-n-octyl-cis-3-{2-[ethyl-N-(2-methoxyphenyl)malonamido]thio}acrylamide] | 500 µg/mL (≈ 1110 µM) |  |  |  |  | > 500 µg/mL |  |  |  | 97% | 0% |  |  |  | 90% | 0% | 0% | 0% | pest or weed control at 100 ppm [8]: 100%
CCCCCCCCNC(=O)/C=C\SC(C(=O)Nc1cccc(C)c1)C(=O)OCC (stereo not drawn) [Example 54, N-n-octyl-cis-3-{2-[ethyl-N-(3-methylphenyl)malonamido]thio}acrylamide] | > 500 µg/mL |  |  |  |  | > 500 µg/mL |  |  |  | 80% | 0% |  |  |  | 87% | 0% | 0% | 0% | pest or weed control at 100 ppm [8]: 97%
CCCCCCCCNC(=O)/C=C\SC(C(=O)Nc1ccc(Cl)c([N+](=O)[O-])c1)C(=O)OCC (stereo not drawn) [Example 48, N-n-octyl-cis-3-{2-[ethyl-N-(3-nitro-4-chlorophenyl)malonamido]thio}acrylamide] | 4 to 31 µg/mL (≈ 8 to 62 µM) | < 2 µg/mL | 31 µg/mL (≈ 62 µM) | > 250 µg/mL | > 250 µg/mL | > 250 µg/mL | > 250 µg/mL |  |  | 99% | 0% |  |  |  | 0% | 0% |  | 50% | pest or weed control at 100 ppm [8]: 99%
CCCCCCCCNC(=O)/C=C\SC(C(=O)c1ccccc1)C(=O)c1cccn1C (stereo not drawn) [Example 68, N-n-octyl-cis-3-{2-[1-phenyl-3-(1-methylpyrroyl-2-yl)-1,3-propanedionyl]thio}acrylamide] |  |  |  |  |  | > 250 µg/mL |  |  |  | 60% | 0% |  |  |  | 80% | 0% | 0% | 0% | 
CCCCCCCNC(=O)/C=C\SC(C(C)=O)C(C)=O [Example 4, N-n-heptyl-cis-3-[3-(2,4-pentanedionyl)thio]acrylamide] | 16 to 63 µg/mL (≈ 53.4 to 210 µM) | < 4 µg/mL | < 4 µg/mL | > 500 µg/mL | > 500 µg/mL | > 500 µg/mL | 63 µg/mL (≈ 210 µM) | 0% | 80% |  | 0% | 98% | 60% | 100% |  |  |  |  | 
CCCCCCNC(=O)/C=C\SC(C(C)=O)C(C)=O [Example 5, N-n-hexyl-cis-3-[3-(2,4-pentanedionyl)thio]acrylamide] | 31 to 63 µg/mL (≈ 109 to 221 µM) | < 4 µg/mL | 16 µg/mL (≈ 56.1 µM) | > 500 µg/mL | > 500 µg/mL | > 500 µg/mL | 63 to 125 µg/mL (≈ 221 to 438 µM) | 0% | 70% |  |  | 100% | 90% | 95% |  |  |  |  | pest or weed control at 300 ppm [11]: 0%
CCCCCCCCNC(=O)/C=C\SC1C(=O)CC(C)(C)CC1=O [Example 9, N-n-octyl-cis-3-[2-(5,5-dimethyl-1,3-cyclohexanedionyl)thio]acrylamide] | > 500 µg/mL |  |  |  |  | > 500 µg/mL |  |  |  |  |  | 99% | 50% | 70% |  |  |  |  | pest or weed control at 200 ppm [9]: 0%; pest or weed control at 200 ppm [11]: 0%; pest or weed control at 200 ppm [12]: 60%

Reference: patent publication US5118681A (priority 1989, dated 1992)
